# From ChEMBL document CHEMBL1201862, “PubChem BioAssay data set” (2004)
#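 48-hour exposure; five concentrations; linearly interpolated endpoints. Here, GI50 denotes the concentration required for 50% inhibition of growth.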 Calls of active or inactive are those of the source. Rule as the data show it: active = GI50 up to about 1.1 µM and inactive = higher.
# How the values were obtained:
# Assay in all cases: inhibition of tumour cell growth, NCI panel, 48 h
# [1] = system: OVCAR-4
# [2] = system: LXFL 529
# [3] = system: SNB-75
# [4] = system: UO-31
# [5] = system: HL-60
# [6] = system: SK-MEL-28
# [7] = system: U-251
# [8] = system: CCRF-CEM
# [9] = system: BT-549
# [10] = system: OVCAR-3
# [11] = system: NCI/ADR-RES
# [12] = system: RPMI-8226
# [13] = system: SF-539
# [14] = system: HOP-92
# [15] = system: RXF 393
# [16] = system: SW-620
# [17] = system: HT-29
# [18] = system: SN12C
# [19] = system: EKVX
# [20] = system: OVCAR-5
Compound,GI50 [1],GI50 [2],GI50 [3],GI50 [4],GI50 [5],GI50 [6],GI50 [7],GI50 [8],GI50 [9],GI50 [10],GI50 [11],GI50 [12],GI50 [13],GI50 [14],GI50 [15],GI50 [16],GI50 [17],GI50 [18],GI50 [19],GI50 [20]
O=C1C(NCCO)=C(N2CC2)C(=O)C(NCCO)=C1N1CC1,> 57.4 µM (inactive),> 51.6 µM (inactive),63.8 µM (inactive),51.9 µM (inactive),13.2 µM (inactive),> 100 µM (inactive),31.5 µM (inactive),17.9 µM (inactive),> 69 µM (inactive),33.7 µM (inactive),> 100 µM (inactive),44.6 µM (inactive),39.4 µM (inactive),> 73.1 µM (inactive),71.3 µM (inactive),46.8 µM (inactive),49 µM (inactive),26.5 µM (inactive),> 81.1 µM (inactive),58.2 µM (inactive)
CC1=C(C(=O)Nc2cc(F)c(F)cc2F)C(c2cccc([N+](=O)[O-])c2)C(C(=O)Nc2ccccc2C(F)(F)F)=C(C)N1 (stereo not given),18.1 µM (inactive),16.8 µM (inactive),12.6 µM (inactive),12.3 µM (inactive),14.6 µM (inactive),22 µM (inactive),16.9 µM (inactive),17.5 µM (inactive),–,16.8 µM (inactive),–,13 µM (inactive),20.7 µM (inactive),10.9 µM (inactive),13.9 µM (inactive),31 µM (inactive),26.7 µM (inactive),19.8 µM (inactive),21.4 µM (inactive),17.9 µM (inactive)
CCOP1(=O)C=CC(Cl)=C(C)C1 (stereo not given),16.4 µM (inactive),12.4 µM (inactive),4.67 µM (inactive),25.6 µM (inactive),3.57 µM (inactive),16.2 µM (inactive),24.4 µM (inactive),3.13 µM (inactive),–,19.9 µM (inactive),–,6.82 µM (inactive),17.8 µM (inactive),16.9 µM (inactive),4.27 µM (inactive),11.5 µM (inactive),13.2 µM (inactive),11.7 µM (inactive),26.4 µM (inactive),24.2 µM (inactive)
C=C1C(C)C2C(Cc3ccccc3)NC(=O)C23C(OC(C)=O)C=CC(C)(O)C(=O)C(C)C/C=C/C3C1O (stereo not given),3.55 µM (inactive),3.14 µM (inactive),0.0333 µM (active),0.296 µM (active),4.57 µM (inactive),2.47 µM (inactive),0.0925 µM (active),4.24 µM (inactive),0.407 µM (active),22.4 µM (inactive),> 65.9 µM (inactive),5.98 µM (inactive),0.117 µM (active),0.569 µM (active),0.0865 µM (active),87.7 µM (inactive),–,39.3 µM (inactive),1.8 µM (inactive),68.9 µM (inactive)
CCOC(=O)NC1=C(N2CC2)C(=O)C(NC(=O)OCC)=C(N2CC2)C1=O [DIAZIQUONE],4.9 µM (inactive),4.92 µM (inactive),4.73 µM (inactive),5.56 µM (inactive),0.357 µM (active),13 µM (inactive),2.51 µM (inactive),1.37 µM (inactive),11.4 µM (inactive),4.75 µM (inactive),3.48 µM (inactive),3.99 µM (inactive),1.75 µM (inactive),5.51 µM (inactive),4.68 µM (inactive),4.97 µM (inactive),7.73 µM (inactive),1.36 µM (inactive),6.37 µM (inactive),7.85 µM (inactive)
